O=c1c2ccccc2sc2ccc(Cl)cc12
Conditions | solubility (mole fraction)
in 1,2-dichloroethane, 291.55 K | 0.0108
in 1,2-dichloroethane, 293.05 K | 0.0114
in 1,2-dichloroethane, 294.95 K | 0.0121
in 1,2-dichloroethane, 297.05 K | 0.0131
in 1,2-dichloroethane, 299.15 K | 0.0139
in 1,2-dichloroethane, 301.25 K | 0.015
in 1,2-dichloroethane, 306.25 K | 0.0173
in 1,2-dichloroethane, 311.35 K | 0.0195
in 1,2-dichloroethane, 316.35 K | 0.022
in 1,2-dichloroethane, 321.45 K | 0.0247
in 1,2-dichloroethane, 326.75 K | 0.0275
in 1,2-dichloroethane, 331.55 K | 0.0307
in 1,4-dioxane, 290.35 K | 0.00155
in 1,4-dioxane, 295.45 K | 0.00263
in 1,4-dioxane, 300.45 K | 0.00398
in 1,4-dioxane, 305.55 K | 0.00552
in 1,4-dioxane, 310.45 K | 0.00703
in 1,4-dioxane, 315.55 K | 0.00882
in 1,4-dioxane, 320.45 K | 0.0105
in 1,4-dioxane, 326.35 K | 0.0128
in 1,4-dioxane, 331.15 K | 0.0145
in 2-butanone, 292.15 K | 0.00488
in 2-butanone, 297.05 K | 0.00587
in 2-butanone, 301.95 K | 0.00695
in 2-butanone, 306.65 K | 0.00834
in 2-butanone, 311.25 K | 0.0101
in 2-butanone, 316.15 K | 0.0119
in 2-butanone, 321.25 K | 0.0145
in 2-butanone, 326.55 K | 0.017
in 2-butanone, 331.55 K | 0.0208
in 2-butanone, 335.95 K | 0.024
in THF, 291.85 K | 0.00658
in THF, 296.95 K | 0.00767
in THF, 302.15 K | 0.00869
in THF, 307.25 K | 0.00967
in THF, 312.25 K | 0.0106
in THF, 317.25 K | 0.0113
in THF, 322.25 K | 0.0118
in THF, 327.55 K | 0.0124
in THF, 332.85 K | 0.0127
in acetone, 289.15 K | 0.00244
in acetone, 294.75 K | 0.00278
in acetone, 299.15 K | 0.00306
in acetone, 303.65 K | 0.00335
in acetone, 309.25 K | 0.00381
in acetone, 313.35 K | 0.00425
in acetone, 319.15 K | 0.00498
in acetone, 323.35 K | 0.00579
in acetone, 329.25 K | 0.00692
in acetonitrile, 289.15 K | 0.000623
in acetonitrile, 294.35 K | 0.000768
in acetonitrile, 299.45 K | 0.00093
in acetonitrile, 305.15 K | 0.00114
in acetonitrile, 309.85 K | 0.00133
in acetonitrile, 315.15 K | 0.0016
in acetonitrile, 319.75 K | 0.0019
in acetonitrile, 324.35 K | 0.00226
in acetonitrile, 329.15 K | 0.00265
in ethanol, 287.55 K | 0.000567
in ethanol, 293.15 K | 0.000679
in ethanol, 298.15 K | 0.000795
in ethanol, 303.15 K | 0.000943
in ethanol, 308.35 K | 0.00122
in ethanol, 313.35 K | 0.0015
in ethanol, 318.15 K | 0.0019
in ethanol, 322.15 K | 0.00229
in ethanol, 327.65 K | 0.00296
in ethyl acetate, 289.15 K | 0.00367
in ethyl acetate, 293.15 K | 0.00419
in ethyl acetate, 298.25 K | 0.00502
in ethyl acetate, 303.45 K | 0.00588
in ethyl acetate, 308.25 K | 0.00683
in ethyl acetate, 313.35 K | 0.00786
in ethyl acetate, 318.45 K | 0.00935
in ethyl acetate, 324.65 K | 0.0112
in ethyl acetate, 330.15 K | 0.0129
in isopropanol, 290.25 K | 0.000547
in isopropanol, 295.15 K | 0.000647
in isopropanol, 300.55 K | 0.000757
in isopropanol, 304.75 K | 0.000906
in isopropanol, 310.25 K | 0.0011
in isopropanol, 314.95 K | 0.00137
in isopropanol, 320.35 K | 0.00179
in isopropanol, 325.65 K | 0.00225
in isopropanol, 331.15 K | 0.00292
in methanol, 292.15 K | 0.000192
in methanol, 297.05 K | 0.000236
in methanol, 301.95 K | 0.000279
in methanol, 306.65 K | 0.00036
in methanol, 311.25 K | 0.000414
in methanol, 316.15 K | 0.000535
in methanol, 321.25 K | 0.000665
in methanol, 326.55 K | 0.000878
in methanol, 331.55 K | 0.00112
in methanol, 335.95 K | 0.00134
in n-propanol, 290.65 K | 0.000647
in n-propanol, 295.25 K | 0.000769
in n-propanol, 300.15 K | 0.000896
in n-propanol, 305.55 K | 0.00106
in n-propanol, 310.65 K | 0.00129
in n-propanol, 315.55 K | 0.00156
in n-propanol, 320.65 K | 0.0019
in n-propanol, 325.55 K | 0.0023
in n-propanol, 331.15 K | 0.00277
in toluene, 289.65 K | 0.00915
in toluene, 295.05 K | 0.0112
in toluene, 300.15 K | 0.0138
in toluene, 305.25 K | 0.0164
in toluene, 310.25 K | 0.0193
in toluene, 315.35 K | 0.023
in toluene, 320.35 K | 0.0276
in toluene, 325.25 K | 0.0321
in toluene, 330.25 K | 0.039

Reference: BigSolDB 2.1
